These results are taken from PMC6143625, “A high throughput screen for next-generation leads targeting malaria parasite transmission” (Nature Communications, 2018).

Molecules are shown by their SMILES.

The subject of test [1] is P. falciparum stage V male gametocytes (male gamete formation). Kind of test: P. falciparum dual gamete formation assay (Pf DGFA), male readout (exflagellation), 48 h carry-over format. The test is classed as cell-based, Plasmodium falciparum NF54. The note with it: Plasmodium falciparum, 48 h incubation; for IC50: 48 h, dose response retest of primary hits, read-out: Male IC50; for inhibition at 2 µM: primary screen, single replicate.

For test [2], the system named is P. falciparum stage V female gametocytes (female gamete formation). The test can be described thus: P. falciparum dual gamete formation assay (Pf DGFA), female readout (Pfs25 expression), 48 h carry-over format. The test is classed as cell-based, Plasmodium falciparum NF54. The settings on record: Plasmodium falciparum, 48 h incubation; for IC50: 48 h, dose response retest of primary hits, read-out: Female IC50; for inhibition at 2 µM: primary screen, single replicate.

In test [3] the test system is P. falciparum 3D7 asexual blood stages. The test can be described thus: Whole-cell time extended asexual growth assay (pLDH). The class given is cell-based. The settings on record: Plasmodium falciparum, 72 h; for IC50: dose response retest, read-out: IC50 (µM) Asex stages; for inhibition at 2 µM: primary screen, read-out: %Inh Asex stages @2uM. How it is done:
Asexual activity was assayed via Plasmodium lactate dehydrogenase activity (pLDH), a surrogate of asexual parasite growth. […] 2 µM artesunate and DMSO were used as the positive and negative controls, respectively. […] After plate mixing, NBT reduction was measured by absorbance at 650 nm using Envision (Perkin Elmer).

Test [4] relates to HepG2 human cells. The arrangement: method as in http://dx.doi.org/10.6019/CHEMBL3507680. The note with it: ref http://dx.doi.org/10.6019/CHEMBL3507680; cited from earlier work.

Take `COc1ccc(NC(=O)Cn2nc(C)c(C(C)=O)c2C)cc1` [DDD01027600]: the half-inhibitory concentration (IC50) in test [1] is 1.24 µM; in test [2], 5.56 µM; in test [3], 0.298 µM. The inhibition at 2 µM in test [1] was 47.3%; in test [2], less than 30%; in test [3], 73.1%. For the same compound, in test [4], the “%Inh HepG2 @10uM” value is on record as 2.67%.
`NCC1CCN(C2CCN(c3ccc(-c4ccco4)cc3)CC2)C1` (centres unmarked) [DDD01252361]: the figures for the IC50 in test [1], in test [2] and in test [3] were 1.12 µM, 3.62 µM and 1.73 µM, respectively. Besides, the inhibition at 2 µM in test [1] came to 94.8%; in test [2], 64%; in test [3], 68.3%. Also, the “%Inh HepG2 @10uM” value in test [4] is on record as 101.96%.
As for `COc1cccc(OC)c1CN1CC(=O)N(c2ccc(C)cc2)CC1C` (centres unmarked) [DDD01252418], in test [3], the IC50 is 5.59 µM and the inhibition at 2 µM was found to be 31.8%. In addition, the “%Inh HepG2 @10uM” value in test [4] was 1.44%.
With `CCOc1cccc(CN2CCCC(Nc3ccc(F)cc3)C2)c1O` (centres unmarked) [DDD01252745], in test [3], the half-inhibitory concentration (IC50) worked out at 3.07 µM and the inhibition at 2 µM amounted to 42.7%. Also, the “%Inh HepG2 @10uM” value in test [4] is -6.06%.
Turning to `CNc1cc(C)nc(N2Cc3cnn(Cc4ccc(F)cc4)c3C2)n1` [DDD01252874], in test [3], the IC50 was 2.61 µM and the inhibition at 2 µM was 45.8%. In test [4], the “%Inh HepG2 @10uM” value is on record as 11.36%.
On to `Cc1nc(NCCSc2ccccn2)c2c(C)noc2n1` [DDD01253053], for which, in test [3], the concentration for half-maximal inhibition (IC50) worked out at 4.44 µM and the inhibition at 2 µM was determined as 38.4%. Further, the “%Inh HepG2 @10uM” value in test [4] is on record as -4.96%.
In the case of `NCC1Cc2cc(-c3nccc(N4CCC(O)CC4)n3)cc(F)c2O1` (centres unmarked) [DDD01254054], in test [3], the half-inhibitory concentration (IC50) came to 4.81 µM and the inhibition at 2 µM stood at 76.3%. The “%Inh HepG2 @10uM” value in test [4] is on record as 6.33%.
On to `CCCc1cncnc1N1CCC(NCc2cc3ccccc3[nH]2)CC1` [DDD01254125], for which, in test [3], the IC50 was 2.43 µM and the inhibition at 2 µM is 35.4%. In addition, the “%Inh HepG2 @10uM” value in test [4] is 8.09%.
For `CNc1nc(C)cc(NC2CCCN(C3Cc4ccccc4C3)C2)n1` (centres unmarked) [DDD01254555], in test [3], the 50% inhibitory concentration (IC50) amounted to 1.97 µM and the inhibition at 2 µM was 91.2%. Further, the “%Inh HepG2 @10uM” value in test [4] is given as 14.91%.
As to `Cc1noc(C)c1CN(C)c1nc(C2CCCC2)nc2c1cnn2C` [DDD01254835], in test [3], the half-inhibitory concentration (IC50) was 2.56 µM and the inhibition at 2 µM was determined as 57.1%. Further, in test [4], the “%Inh HepG2 @10uM” value is 9.62%.
In the case of `CNC(=O)c1cn2cc(-c3ccccc3Cl)n(CC=C(C)C)c(=O)c2n1` [DDD01255495], in test [3], the concentration for half-maximal inhibition (IC50) was 6.64 µM and the inhibition at 2 µM came out at 43.8%. Further, in test [4], the “%Inh HepG2 @10uM” value is reported as 35.09%.
With `Cc1cnc(C)c(N2CCN(CCCc3ccncc3)CC2)n1` [DDD01256723], in test [3], the IC50 turned out to be 3.29 µM and the inhibition at 2 µM is 48%. In addition, the “%Inh HepG2 @10uM” value in test [4] is 6.37%.
On to `NCC(=O)N1CCCC1c1ccc(C(=O)NCc2ccoc2)s1` (centres unmarked) [DDD01257217], for which, in test [3], the IC50 worked out at 2.73 µM and the inhibition at 2 µM came out at 34.1%. Moreover, in test [4], the “%Inh HepG2 @10uM” value is listed as -2.34%.
Turning to `CSCCNC(=O)c1ccc(OC2CCN(CC(C)(C)C)CC2)c(Cl)c1` [DDD01257510], in test [3], the concentration for half-maximal inhibition (IC50) is 5.38 µM and the inhibition at 2 µM stood at 38.4%. In test [4], the “%Inh HepG2 @10uM” value is -7.80%.
Regarding `Cc1nc[nH]c1CN(C)CC1CCCN(CCc2ccc(Cl)cc2)C1` (centres unmarked) [DDD01257555], in test [3], the concentration for half-maximal inhibition (IC50) was determined as 2.44 µM and the inhibition at 2 µM was found to be 66.5%. In addition, in test [4], the “%Inh HepG2 @10uM” value is 20.49%.
With `COc1cccc(CN2CCCC(Nc3cccc(F)c3)C2)c1O` (centres unmarked) [DDD01257695], in test [3], the IC50 was 2.56 µM and the inhibition at 2 µM was 55.2%. Further, the “%Inh HepG2 @10uM” value in test [4] was -4.92%.
Take `CN(Cc1cccc(O)c1)CC1CCCN(CCc2ccc(Cl)cc2)C1` (centres unmarked) [DDD01257948]: in test [3], the IC50 is 1.79 µM and the inhibition at 2 µM is 92.9%. In addition, the “%Inh HepG2 @10uM” value in test [4] is listed as 10.17%.
For `CCC1CN(C(=O)c2ccc(Cl)cc2O)CCN1C(C)C` (centres unmarked) [DDD01258121], in test [3], the 50% inhibitory concentration (IC50) amounted to 2.83 µM and the inhibition at 2 µM was found to be 48.6%. Further, the “%Inh HepG2 @10uM” value in test [4] was -6.93%.
For `CCc1c(C)nc2cc(C3CCN(Cc4ccccc4F)C3)nn2c1O` (centres unmarked) [DDD01270117], in test [3], the IC50 is 6.27 µM and the inhibition at 2 µM came out at 43.5%. Besides, the “%Inh HepG2 @10uM” value in test [4] is on record as -2.56%.
For `Cc1cc(C)n(C2CN(CC(O)c3cc(F)ccc3F)C2)n1` (centres unmarked) [DDD01298957], in test [3], the IC50 came to 1.27 µM and the inhibition at 2 µM turned out to be 74.5%. Moreover, in test [4], the “%Inh HepG2 @10uM” value was 6.16%.
Consider `CCNC(=O)C(C)NC(=O)c1cnc(-c2ccc(C)cc2C)s1` (centres unmarked) [DDD01300473], for which, in test [3], the IC50 stood at 2.86 µM and the inhibition at 2 µM was determined as 37%. Besides, the “%Inh HepG2 @10uM” value in test [4] is reported as 1.57%.
As to `Cc1nc2ccccc2nc1CN1CCCC1Cn1cccn1` (centres unmarked) [DDD01301355], in test [3], the IC50 turned out to be 8.56 µM and the inhibition at 2 µM came to 31%. In addition, the “%Inh HepG2 @10uM” value in test [4] is reported as 20.57%.
As for `CN(Cc1ncc(C(C)(C)C)o1)CC1CCCN1c1cccnn1` (centres unmarked) [DDD01301524], in test [3], the IC50 turned out to be 5.73 µM and the inhibition at 2 µM was found to be 31.2%. The “%Inh HepG2 @10uM” value in test [4] is recorded as 23.44%.
Turning to `CC(C)c1cc(NC(=O)c2ccc(C(=O)NC(C)(C)C)cc2)[nH]n1` [DDD01301645], in test [3], the IC50 is 4.02 µM and the inhibition at 2 µM was found to be 33.2%. In test [4], the “%Inh HepG2 @10uM” value is -4.05%.
For the compound `CCC(C)(C)NC(=O)CN(C)C(c1cccc(F)c1)c1ccccn1` (centres unmarked) [DDD01301778], in test [3], the IC50 stood at 6.7 µM and the inhibition at 2 µM was found to be 30.8%. The “%Inh HepG2 @10uM” value in test [4] is reported as 0.64%.
As for `Cc1ccc(Cl)cc1N1CCC(CNC(=O)CCn2ccnc2)C1` (centres unmarked) [DDD01302767], in test [3], the IC50 is 3.83 µM and the inhibition at 2 µM came out at 33.8%. In test [4], the “%Inh HepG2 @10uM” value is on record as -10.10%.
As for `COc1ccc(CNCC2CCN(CC(C)O)CC2)c2ccccc12` (centres unmarked) [DDD01302860], in test [3], the concentration for half-maximal inhibition (IC50) is 2.69 µM and the inhibition at 2 µM is 39.2%. In test [4], the “%Inh HepG2 @10uM” value is reported as 29.84%.
Turning to `Cc1cc(C)n(C2CN(CC(O)c3ccc4c(c3)OCO4)C2)n1` (centres unmarked) [DDD01303662], in test [3], the IC50 worked out at 7.81 µM and the inhibition at 2 µM stood at 40.2%. The “%Inh HepG2 @10uM” value in test [4] is -2.16%.
For the compound `CC(C)c1nn(C)c(Cl)c1CNCC(O)c1cccc(F)c1.Cl` (centres unmarked) [DDD01304823], in test [3], the IC50 is 3.62 µM and the inhibition at 2 µM came out at 34.2%. Further, the “%Inh HepG2 @10uM” value in test [4] is listed as -10.30%.
For the compound `Cc1nc(CN2CCCC(N(C)Cc3c(C)noc3C)C2)no1` (centres unmarked) [DDD01304956], in test [3], the concentration for half-maximal inhibition (IC50) amounted to 3.93 µM and the inhibition at 2 µM stood at 31.2%. In addition, the “%Inh HepG2 @10uM” value in test [4] is given as 10.61%.
For the compound `O=C1CCCCN1c1cccc(CNC2CCCC2)c1` [DDD01305031], in test [3], the half-maximal inhibitory concentration (IC50) was 6.03 µM and the inhibition at 2 µM stood at 31.2%. Moreover, the “%Inh HepG2 @10uM” value in test [4] is given as -17.90%.
